Values of other authors as cited in patent publication US8106048B2, “Heterocyclic NF-κB inhibitors” (4SC AG, priority 2004, dated 2012).

How the values were obtained:
[1] = system: TNF-α; conditions: mouse; cited from earlier work
[2] = system: NF-κB; conditions: cited from earlier work
[3] = molecular target: T1, 20S and 26S proteasome (Homo sapiens, UniProt P28072+P28074+Q99436); conditions: cited from earlier work
T1 sequence (P28074 60-263): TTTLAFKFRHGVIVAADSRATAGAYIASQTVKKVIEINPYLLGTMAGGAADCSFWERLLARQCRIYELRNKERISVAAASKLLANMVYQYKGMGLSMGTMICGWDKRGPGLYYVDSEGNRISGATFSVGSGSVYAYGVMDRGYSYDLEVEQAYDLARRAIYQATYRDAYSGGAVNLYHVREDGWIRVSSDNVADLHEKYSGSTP
T1 sequence (P28072 1-239): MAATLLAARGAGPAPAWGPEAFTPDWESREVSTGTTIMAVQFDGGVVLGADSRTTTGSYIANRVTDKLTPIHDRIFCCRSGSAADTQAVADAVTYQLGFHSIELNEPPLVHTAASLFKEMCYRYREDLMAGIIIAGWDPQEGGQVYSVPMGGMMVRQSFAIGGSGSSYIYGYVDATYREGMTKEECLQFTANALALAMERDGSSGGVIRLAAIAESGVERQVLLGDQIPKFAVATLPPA
T1 sequence (Q99436 44-277): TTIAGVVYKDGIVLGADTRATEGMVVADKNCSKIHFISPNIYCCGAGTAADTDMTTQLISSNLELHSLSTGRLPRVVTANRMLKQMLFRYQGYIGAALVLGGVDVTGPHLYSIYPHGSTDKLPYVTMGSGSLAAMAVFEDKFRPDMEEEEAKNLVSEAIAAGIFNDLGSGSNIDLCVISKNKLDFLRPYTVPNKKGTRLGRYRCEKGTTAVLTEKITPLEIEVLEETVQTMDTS

SMILES	lipopolysaccharide-induced TNF-α production [1]	inhibition of NF-κB transcriptional activation [2]	inhibition of 20S and 26S proteasome [3]	inhibitory activity on proteasome peptidase activities ([3]; trypsin-like, chymotrypsin-like, peptidylglutamylpeptide hydrolyzing)
CCN(CC)CCNC(=O)c1ccc(N)c(Cl)c1 [3-chloroprocainamide]	blocked lipopolysacharide-induced TNF-α production in mouse in a dose dependent manner	inhibitors of NF-κB transcritional activation		
CC(=O)N[C@@H](CSC(=O)[C@]1([C@@H](O)C(C)C)NC(=O)[C@H](C)[C@@H]1O)C(=O)O [Lactacystin]			inhibits both, 20S and 26S proteasome	inhibitory activity on trypsin-like, chymotrypsin-like and peptidylglutamylpeptide hydrolyzing activities
S=C(S)N1CCCC1 [pyrrolidine dithiocarbamate]	blocked lipopolysacharide-induced TNF-α production in mouse in a dose dependent manner	inhibitors of NF-κB transcritional activation		
